According to patent publication US7166744B2, “Retinoid derivatives and methods for producing said compounds and anti-cancer pharmaceutical composition comprising said compounds” (Chebigen Co., Ltd., priority 2001, dated 2007):

What was measured:
Type in all cases: cell-based
[1] = tested on: colon cancer cells; assay: MTT proliferation assay, colon cancer cells (Table 1); settings: 48 hours, concentration required for 50% growth inhibition, read-out: IC50, activities of various retinoid derivatives in colon cancer cells
Method: The effects of test compounds on proliferation of various cancer cells was examined by 3-(4,5-dimethylthiazol-2-yl)-2,5-diphenyltetrazolium bromide (MTT, Sigma) assay in a dose dependent manner. In the MTT assay, colon, liver, cervix, ovary, and breast cancer cell lines were treated with test compounds at various concentrations. Living cancer cells reduce MTT to dark blue MTT formazan that would be measured by absorbance.
Colon cancer cells, HCT116, DLD-1 and HT29, cervix cancer cells, HeLa and CaSki, ovary cancer cells, SKOV-3, 2774 and OVCAR-3, liver cancer cells, SK-Hep-1, PLCPRF5 and HepG2, and breast cancer cells, ZR75-1 and MDA-MB 231 were seeded at an initial density of 3000 cells per well in 96-well plates. After attachment of cells to the walls of the wells, the medium containing fresh retinoid was treated with various concentrations (0.5 μM, 1 μM, 2.5 μM, 5 μM, 10 μM) for 48 hours. 50 μl of MTT solution (2 mg/ml in PBS) was added to cell culture media. The reaction micture was incubated at 37° C. in a 5% CO2 atmosphere for 4 hours. The supernatant was removed and 150 μl of DMSO was added. The optical density was measured spectrophotometrically at 550 nm. […] For other retinoid derivatives according to the present invention, absorbances were measured by this procedure and IC50 values, concentrations required for 50% growth inhibition, were determined.

[2] = tested on: HCT116 colon cancer cells; assay: DAPI staining of nuclei, HCT116; settings: HCT116, 5 μM, 36 h
Method: By DAPI (4,6-diamidino-2-phenylindole) staining assay for staining DNA in cellular nucleus, nuclear condensation and fragmentation, characteristic features of apoptosis, were observed. […] In FIG. 4, the control represents non-treated cells. The sub-G1 DNA contents of colon cancer HTC116 cells and breast cancer MCF-7 cells were measured by FACS (Fluorescence-Activated Cell Sorter) assay to quantify the apoptosis (FIG. 5). Finally, in order to further characterize the apoptosis observed in retinoid derivative-treated cells, the cleavage of apoptosis-related proteins, including PARP (poly(ADP-ribose)polymerase) and CPP32 (caspase-3) by Western blotting. […] PARP cleavage occurred in a time-dependent manner, in parallel with the induction of apoptosis (FIG. 6B). C in FIG. 6 represents the result of Western blotting of non-treated cells.
Meanwhile, HPR which is a precursor during the synthesis process of KCBG60 is known to induce apoptosis. Considering that the cells aggregated into small spherical mass upon treatment with KCBG60, KCBG60 is expected to induce apoptosis. In order to confirm apoptosis induced by KCBG60 once again, KCBG60-treated HCT116 cells were stained with DAPI and observed for nuclear condensation, an indicative of apoptosis (FIG. 12).

[3] = tested on: MMP-1 mRNA expression; assay: RT-PCR of MMP-1 mRNA in HCT116; settings: HCT116, 1 μM, 36 hours
Method: (§1) Previously, it was shown that the synthetic retinoid derivatives inhibit the transcriptional activity of AP-1. Also, it is well known that MMP (matrix metalloproteinase), a main target gene of AP-1 is involved in metastasis of cancer cells. Therefore, the inhibitive effects of the retinoid derivatives on metastasis of cancer was examined by RT-PCR analysis. Colon cancer HCT116 cells were treated with 1 μM retinoid for 36 hours. RNA was isolated from the cells and mRNA expression levels of MMP-1, -2 and -3 were analyzed by RT-PCR. […] As the control, GAPDH was used and it was confirmed that its expression was not affected by retinoid. Meanwhile, the expression level of MMP-3 was affected weakly by KCBG40, intermediately by KCBG41 but strongly by KCBG10 (FIG. 9).
(§2) RNA was isolated from the cells and mRNA expression levels of MMP-1, -2 and -3 were analyzed by RT-PCR (FIG. 14).

[4] = tested on: MMP-2 mRNA expression; assay: RT-PCR of MMP-2 mRNA in HCT116; settings: HCT116, 1 μM, 36 hours
Method: as §1, §2

[5] = tested on: MMP-3 mRNA expression; assay: RT-PCR of MMP-3 mRNA in HCT116; settings: HCT116, 1 μM, 36 hours
Method: as §1

| Compound | IC50 [1] [µM] | further results |
| --- | --- | --- |
| 4-(4-[(2E,4E,6E,8E)-3,7-dimethyl-9-(2,6,6-trimethyl-1-cyclohexenyl)-2,4,6,8-nonatetraenoyl]aminophenoxy)-oxo-heptanedioic acid [KCBG53] | 6.5 |  |
| CC1=C(/C=C/C(C)=C/C=C/C(C)=C/C(=O)Nc2ccc(O)cc2O)C(C)(C)CCC1 [KCBG08, (2E,4E,6E,8E)-[3,7-dimethyl-9-(2,6,6-trimethylcyclohex-1-enyl)-nona-2,4,6,8-tetraenoyl]-(2,4-dihydroxy)phenylamide] | > 100 |  |
| CCCC(=O)Oc1ccc(NC(=O)C=C(C)C=CC=C(C)C=CC2=C(C)CCCC2(C)C)c(OC(=O)CCC)c1 [KCBG09, 5-Butyryloxy-2-[3,7-dimethyl-9-(2,6,6-trimethylcyclohex-1-enyl)-nona-2,4,6,8-tetraenoylamino]-phenylbutanoate] | 10 to 20 |  |
| CCC(=O)Oc1cc(O)ccc1NC(=O)/C=C(C)/C=C/C=C(C)/C=C/C1=C(C)CCCC1(C)C [KCBG15, 2-[(2E,4E,6E,8E)-3,7-dimethyl-9-(2,6,6-trimethylcyclohex-1-enyl)-nona-2,4,6,8-tetraenoylamino]-5-hydroxyphenylpropionate] | 8 |  |
| CC(=O)C(=O)Oc1cc(O)ccc1NC(=O)/C=C(C)/C=C/C=C(C)/C=C/C1=C(C)CCCC1(C)C [KCBG22, 2-[(2E,4E,6E,8E)-3,7-dimethyl-9-(2,6,6-trimethylcyclohex-1-enyl)-nona-2,4,6,8-tetraenoylamino]-5-hydroxyphenyl-2-oxopropionate] | 6 |  |
| CCCC(=O)Nc1cc(NC(=O)/C=C(C)/C=C/C=C(C)/C=C/C2=C(C)CCCC2(C)C)ccc1OC(=O)CCC [KCBG42, 2-Butyrylamino-4-(2E,4E,6E,8E)-[3,7-dimethyl-9-(2,6,6-trimethylcyclohex-1-enyl)-nona-2,4,6,8-tetraenoylamino]-phenylbutanoate] | 7 |  |
| CC(=O)C(=O)Oc1ccc(NC(=O)/C=C(C)/C=C/C=C(C)/C=C/C2=C(C)CCCC2(C)C)cc1 [KCBG45, 4-[(2E,4E,6E,8E)-3,7-dimethyl-9-(2,6,6-trimethyl-1-cyclohexenyl)-2,4,6,8-nonatetraenoyl]aminophenyl-2-oxopropanoate] | 7 |  |
| CC1=C(/C=C/C(C)=C/C=C/C(C)=C/C(=O)Nc2ccc(OC(=O)CCC(=O)O)cc2)C(C)(C)CCC1 [KCBG50, 4-(4-[(2E,4E,6E,8E)-3,7-dimethyl-9-(2,6,6-trimethyl-1-cyclohexenyl)-2,4,6,8-nonatetraenoyl]aminophenoxy)-4-oxobutanoic acid] | 5.5 |  |
| CC(=O)NC(CCC(N)=O)C(=O)Oc1ccc(NC(=O)/C=C(C)/C=C/C=C(C)/C=C/C2=C(C)CCCC2(C)C)cc1 (stereo not drawn) [KCBG52, 4-[(2E,4E,6E,8E)-3,7-dimethyl-9-(2,6,6-trimethylcyclohex-1-enyl)-nona-2,4,6,8-tetraenoylamino]phenyl-2-acetylamino-4-carbamoylbutanoate] | 7 |  |

Stronger by IC50 [1], values ahead:

| IC50 [1] [µM] | Compound | further results |
| --- | --- | --- |
| 3.5 | 2-[(2E,4E,6E,8E)-3,7-Dimethyl-9-(2,6,6-trimethylcyclohex-1-enyl)-nona-2,4,6,8-tetraenoylamino]-5-hydroxyphenyl(dimethylamino)acetate [KCBG23] |  |
| 5 | 4-(4-[(2E,4E,6E,8E)-3,7-dimethyl-9-(2,6,6-trimethyl-1-cyclohexenyl)-2,4,6,8-nonatetraenoyl]aminophenoxy)-4-oxobutanoic acid [KCBG32] |  |
| 4.5 | 4-(4-[(2E,4E,6E,8E)-3,7-dimethyl-9-(2,6,6-trimethyl-1-cyclohexenyl)-2,4,6,8-nonatetraenoyl]aminophenoxy)-oxo-hexanedioic acid [KCBG51] |  |
| 3 | CCCC(=O)Oc1ccc(NC(=O)/C=C(C)/C=C/C=C(C)/C=C/C2=C(C)CCCC2(C)C)cc1OC(=O)CCC [KCBG34, 2-Butyryloxy-5-(2E,4E,6E,8E)-[3,7-dimethyl-9-(2,6,6-trimethylcyclohex-1-enyl)-nona-2,4,6,8-tetraenoylamino]phenylbutanoate] |  |
| 2 | CCCC(=O)Oc1cc(NC(=O)/C=C(C)/C=C/C=C(C)/C=C/C2=C(C)CCCC2(C)C)ccc1O [KCBG35, 5-(2E,4E,6E,8E)-[3,7-dimethyl-9-(2,6,6-trimethylcyclohex-1-enyl)-nona-2,4,6,8-tetraenoylamino]-2-hydroxyphenylbutanoate] |  |
| 2 | CCC(=O)C(=O)Oc1cc(O)ccc1NC(=O)/C=C(C)/C=C/C=C(C)/C=C/C1=C(C)CCCC1(C)C [KCBG38, 2-[(2E,4E,6E,8E)-3,7-dimethyl-9-(2,6,6-trimethylcyclohex-1-enyl)-nona-2,4,6,8-tetraenoylamino]-5-hydroxyphenyl 2-oxobutanoate] |  |
| 3 | CC1=C(/C=C/C(C)=C/C=C/C(C)=C/C(=O)Nc2ccc(O)cc2OC(=O)CC(C)O)C(C)(C)CCC1 (stereo not drawn) [KCBG39, 2-[(2E,4E,6E,8E)-3,7-dimethyl-9-(2,6,6-trimethylcyclohex-1-enyl)-nona-2,4,6,8-tetraenoylamino]-5-hydroxyphenyl-3-hydroxybutanoate] |  |
| 0.6 | CCCC(=O)Nc1ccc(NC(=O)/C=C(C)/C=C/C=C(C)/C=C/C2=C(C)CCCC2(C)C)cc1 [KCBG40, (2E,4E,6E,8E)-[3,7-dimethyl-9-(2,6,6-trimethylcyclohex-1-enyl)-nona-2,4,6,8-tetraenoylamino]-(4-butyrylamino)phenylamide] | nuclear condensation and fragmentation (DAPI) [2]: largely showed nuclear fragmentation; inhibition of MMP-1 mRNA expression [3]: affected very little; inhibition of MMP-2 mRNA expression [4]: affected very little; effect on MMP-3 mRNA expression level [5]: weakly |
| 4 | CCCCS(=O)(=O)Oc1ccc(NC(=O)/C=C(C)/C=C/C=C(C)/C=C/C2=C(C)CCCC2(C)C)cc1 [KCBG43, 4-[(2E,4E,6E,8E)-3,7-dimethyl-9-(2,6,6-trimethyl-1-cyclohexenyl)-2,4,6,8-nonatetraenoyl]aminophenyl-1-butanesulfonate] |  |
| 1.8 | CCC(=O)C(=O)Oc1ccc(NC(=O)/C=C(C)/C=C/C=C(C)/C=C/C2=C(C)CCCC2(C)C)cc1 [KCBG47, 4-[(2E,4E,6E,8E)-3,7-dimethyl-9-(2,6,6-trimethyl-1-cyclohexenyl)-2,4,6,8-nonatetraenoyl]aminophenyl-2-oxobutanoate] |  |
| 3.5 | CC1=C(/C=C/C(C)=C/C=C/C(C)=C/C(=O)Nc2ccc(OC(=O)CCCCCCC(=O)O)cc2)C(C)(C)CCC1 [KCBG54, 4-(4-[(2E,4E,6E,8E)-3,7-dimethyl-9-(2,6,6-trimethyl-1-cyclohexenyl)-2,4,6,8-nonatetraenoyl]aminophenoxy)-oxo-octanedionic acid] |  |
